# Measurements as given in patent publication US20020106348A1, “Cancer therapeutics involving the administration of 2-methoxyestradiol and an agent that increases intracellular superoxide anion” (priority 2000, published 2002).
# What was measured:
# ML-1 = experiment: Apoptosis / nucleosomal DNA fragmentation in ML-1 cells; assay type: cell-based, human; details: 1 μM; ML-1 (wt p53)
# K562 = experiment: MTT assay, K562 cells; assay type: cell-based; details: Homo sapiens, K562 (no p53)
# CuZnSOD = experiment: Inhibition of CuZnSOD by estrogen derivatives; assay type: biochemical; details: FIG. 20
# bovine CuZnSOD = biological target: T1, bovine CuZnSOD (Bos taurus, UniProt P00442); experiment: In vitro SOD activity assay, bovine CuZnSOD; assay type: biochemical; details: purified enzyme; read-out: IC50, inhibition of bovine CuZnSOD
# T1 construct: purchased Boehringer Mannheim
# T1 sequence (P00442 whole entry): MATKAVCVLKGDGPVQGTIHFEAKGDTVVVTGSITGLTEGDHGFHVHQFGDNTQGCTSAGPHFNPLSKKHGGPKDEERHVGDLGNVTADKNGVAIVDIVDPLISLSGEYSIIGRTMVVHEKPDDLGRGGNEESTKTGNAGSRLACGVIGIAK
# Protocol: A spectrophotometric assay was used to determine the effect of 2-methoxyestradiol (2-ME) on SOD activity in vitro with purified enzymes (bovine CuZnSOD from Boehringer Mannheim; human CuZnSOD and E. coli MnSOD from Sigma). The reactions contained 2.5 ml of 50 mM Na2CO3, 0.1 ml of 3 mM xanthine, 0.1 ml of 3 mM EDTA, and 0.1 ml of 0.8 mM XTT (3′-(1-[phenylamino-carbonyl]3,4-tetrazolium)-bis(4-methoxy-6-nitro)benzene-sulfonic acid hydrate), and the indicated concentrations of SOD and 2-ME. Xanthine oxidase (0.1 ml, 64 mU/ml) was added to start the reaction. After incubation at 24° C. for 30 min, the absorbance at 470 nm was measured. The relative activity (RA) of SOD was calculated by the following formula: […]
# where a is the absorbance of reaction without SOD, b is the absorbance of reaction with SOD but without 2-ME, c is the absorbance of reaction with SOD in the presence of 2-ME. All values were subtracted by the background reading of the blank. In separate experiments using nitro blue tetrazolium or cytochrome c as substrates for SOD assay, 2-ME and DMSO (as a solvent for 2-ME) interfered with the calorimetric reaction. These artifacts preclude the use of NBT or cytochrome c as the substrates for measuring the effect of 2-ME on SOD activity. Neither 2-ME nor DMSO affect the calorimetric reaction of XTT.
# HL-60 [1] = experiment: H2O2 generation in cell culture, HL-60 cells; assay type: cell-based, human
# HL-60 cells = experiment: Cellular O2^- by flow cytometry, HL-60 cells; assay type: cell-based, human; details: 0.25 μM
# CML cells = experiment: MTT assay, primary CML cells; assay type: cell-based, human; details: 30 μM, 3 patients
# HL-60 [2] = experiment: MTT assay, HL-60 cells; assay type: cell-based; details: Homo sapiens, HL-60 (no p53)
# [3] = test system: ML-1, HL-60 and CLL cells; experiment: HPLC analysis of cellular metabolites of [3H]2-ME; assay type: in vitro ADME, human; details: [3H]2-ME 0.5 μCi/ml, 5 h
# Protocol: To determine cellular uptake of 2-ME, cells were incubated with 1 μM [^3H]2-ME (0.5 μCi/ml) for 5 h and when washed twice with cold PBS. Radioactivity associated with the cell pellets or the culture medium was quantitated by liquid scintillation counting. 2-ME concentrations were calculated based on the specific radioactivity of [^3H]2-ME, cell number, and the mean cell volume as measured by a Coulter Counter equipped with a 256-Channelyzer. HPLC was used to analyze potential cellular metabolites of 2-ME. Cells were incubated with [^3H]2-ME (0.5 μCi/ml) for 5 h, washed twice with PBS, and then extracted with 50% methanol. The extracts were analyzed by HPLC equipped with a UV detector (284 nm) and an on-line liquid scintillation counter, using a μBondapak C18 reversed-phase column and the following running conditions: 1 ml/min; 0-5 min, 100% buffer A (water:acetontrile:acetic acid=59:40:1); 5-17 min, a linear gradient of 0->100% buffer B (water:acetontrile:acetic acid=39:60:1); 17-30 min, 100% B.
# SOD = SOD inhibition in vitro (restated, enzyme not specified); assay type: biochemical; details: restated in discussion
smiles,measurement,setting,value
"COc1cc2c(cc1O)CC[C@@H]1[C@@H]2CC[C@]2(C)[C@@H](O)CC[C@@H]12 [2-ME, 1,3,5(10)-estratrien-2,3,17b-triol 2 methylether]",apoptotic morphology and nucleosomal DNA fragmentation,ML-1,Typical apoptotic morphology and nucleosomal DNA fragmentation were observed
same,IC50,K562,< 1 µM
same,inhibition of SOD activity,CuZnSOD,substantially inhibited SOD activity
same,IC50,bovine CuZnSOD,~20 µM
same,H2O2 production,HL-60 [1],concentration-dependent decrease of H2O2
same,cellular O2^− content,HL-60 cells,increase of cellular O2^−
same,cell survival,CML cells,54.7%
same,IC50,HL-60 [2],< 1 µM
same,cellular drug metabolites,[3],no significant drug metabolites
same,IC50,SOD,~20 µM
